# From patent EP0079397A1, “Asymmetrically substituted (2,4,6-triodoanilides) of dicarboxylic acids, their preparation and X-ray contrast agents containing them” (SCHERING AKTIENGESELLSCHAFT, priority 1981, dated 1983)
# Where two headings read alike, the source gives them in different places.
# Tests used:
# [1] = test system: Leber; settings: dog; cited from earlier work
# [2] = test system: Leber; settings: man; cited from earlier work
# [3] = test system: Leber des Hundes; assay: Maximum enrichment in dog liver by computed tomography; settings: 360 mg Jod/kg i.v.; for maximale Anreicherung in der Leber des Hundes: meglumine salt solutions 180 mg Jod/ml, CT up to 90 min
# Protocol: (§2) Die Werte wurden an gesunden weiblichen und männlichen Beagle-Hunden (Züchter: Schering) im Gewicht von 9-14 kg ermittelt.
# (§3) Die Megluminsalzlösungen enthielten 180 mg Jod/ml.
# (§4) Die Scanzeit betrug 20 Sekunden, die Röhrenspannung 120 kV. Bei einer Bildmatrix von 320 x 320 Elementen betrug die Standardabweichung vom Mittelwert eines normierten Wasserphantoms 1,6 % (d.h. + 8 EU = EMI-Units.
# (§5) Die Auswertung der Computertomogramme stets des gleichen Leberareals erfolgte mit Hilfe der Auswerteeinheit "IVC" der Fa. EMI.
# [4] = Partition coefficient butanol/water; format: physicochemical; settings: meglumine salts
# [5] = Protein binding to human serum; format: in vitro ADME; settings: at ca. 1,2 mg Jod/ml, meglumine salts, read-out: Proteinbindung an Humanserum (converted)
# [6] = test system: Ratte; assay: Acute intravenous toxicity (DL50) in rats; format: in vivo; settings: meglumine salt solutions 180 mg Jod/ml, 0,8 ml/min, 100 g rats
# Protocol: (§1) • 1) Injektion der Kontrastmittel als Megluminsalzlösungen mit 180 mg Jod/ml mit einer Geschwindigkeit von 0,8 ml/min bei 100 g schweren männlichen und weiblichen Ratten. • 2) Männlichen und weiblichen Ratten im Gewicht von etwa 100 g wurden in leichter Äthernarkose je 0,04 ml unterschiedlich konzentrierter Kontrastmittellösungen nach der Methode von Valzelli durch eine natürliche Knochenspalte des Schädels zwischen Joch- und Hinterhauptbein intrazerebral injiziert. Die Injektion erfolgte mit einer Hamilton Spritze 710 N, bei der die Einstichtiefe auf 10 mm begrenzt ist. Je Präparat wurden mindestens 4 Dosierungen an 10 Tieren untersucht. Als Wirkungskriterien wurden über den Zeitraum von 24 Stunden Exzitationszustände, schwere Haltungsanomalien, Koma und Tod bewertet. • 3) Bei grundsätzlich gleicher Versuchsanlage wie unter 2) beschrieben, wurden 200-250 g schweren Ratten die Kontrastmittel in die Cisterna suboccipitalis injiziert. Die Kontrastmittel wurden mit 3%iger Mannit-lösung verdünnt, um den osmotischen Druck anzupassen. • 4) Ratten (ca. 150 g Körpergewicht) wurde in Ithernarkose ein Polyäthylenschlauch in den Ductus choledochus eingebunden. […]
# [7] = test system: Ratte; assay: Neural tolerance after pericerebral injection in rats (method of Valzelli); format: in vivo; settings: 0,04 ml injected, ca. 100 g rats, 24 h observation: excitation, posture anomalies, coma, death
# Protocol: as §1
# [8] = test system: Ratte; assay: Neural tolerance after intracisternal injection in rats; format: in vivo; settings: injection into Cisterna suboccipitalis, 200-250 g rats, diluted with 3% mannitol solution
# Protocol: as §1
# [9] = in vivo; set-up: species or system Ratte; settings: rat, iv, 60 mg/kg
# Protocol: • 1) Injektion der Kontrastmittel als Megluminsalzlösungen mit 180 mg Jod/ml mit einer Geschwindigkeit von 0,8 ml/min bei 100 g schweren männlichen und weiblichen Ratten. • 2) Männlichen und weiblichen Ratten im Gewicht von etwa 100 g wurden in leichter Äthernarkose je 0,04 ml unterschiedlich konzentrierter Kontrastmittellösungen nach der Methode von Valzelli durch eine natürliche Knochenspalte des Schädels zwischen Joch- und Hinterhauptbein intrazerebral injiziert. Die Injektion erfolgte mit einer Hamilton Spritze 710 N, bei der die Einstichtiefe auf 10 mm begrenzt ist. Je Präparat wurden mindestens 4 Dosierungen an 10 Tieren untersucht. Als Wirkungskriterien wurden über den Zeitraum von 24 Stunden Exzitationszustände, schwere Haltungsanomalien, Koma und Tod bewertet. • 3) Bei grundsätzlich gleicher Versuchsanlage wie unter 2) beschrieben, wurden 200-250 g schweren Ratten die Kontrastmittel in die Cisterna suboccipitalis injiziert. Die Kontrastmittel wurden mit 3%iger Mannit-lösung verdünnt, um den osmotischen Druck anzupassen. • 4) Ratten (ca. 150 g Körpergewicht) wurde in Ithernarkose ein Polyäthylenschlauch in den Ductus choledochus eingebunden. Etwa eine Stunde nachdem die Tiere aus der Narkose erwacht waren, wurden die Kontrastmittel in einer Dosis von 60 mg Jod/kg intravenös injiziert und die Galle bis 3 Stunden nach der Injektion fraktioniert gesammelt. • 5) Intakten Ratten von etwa 100 g Körpergewicht wurde 20 Minuten vor der Verabreichung des Kontrastmittels 5 ml Wasser und dann in 1-stündigem Abstand nach der Verabreichung der Prüfsubstanzen 3 mal je 2 ml Wasser oral verabreicht. bis 3 Stunden nach der i.v. Injektion des Kontrastmittels in einer Dosis von 60 mg Jod/kg wurde der Harn quantitativ gesammelt. • 4), 5) die Messung des Kontrastmittels erfolgte entweder aufgrund der ^131J-Aktivität in den Proben oder bei nicht radioaktiv markierten Kontrastmitteln mit Hilfe der Röntgenfluoreszenz des Jods.
# [10] = in vivo; settings: dog, iv
# Protocol: as §2, §3, §4, §5
compound,measurement,setting,value
"CNC(=O)c1c(I)c(NC(=O)CCCCCCCCC(=O)Nc2c(I)c(C(=O)O)c(I)c(C(=O)NC)c2I)c(I)c(C(=O)O)c1I [D, Iosefamsäure]",Konzentration in der Leber,[1],noch ausreichende
same,Konzentration in der Leber,[2],nicht mehr genügende
same,maximale Anreicherung in der Leber des Hundes,[3],"22,8 EMI-Units"
same,"maximale Anreicherung in der Leber des Hundes, min. p. appl.",[3]; time of maximum enrichment,80 min. p. appl.
"O=C(CCCCC(=O)Nc1c(I)cc(I)c(C(=O)O)c1I)Nc1c(I)cc(I)c(C(=O)O)c1I [B, Iodipamid]",Verteilungskoeffizient Butanol/Wasser pH 7.4,[4],"0,278 ± 0,008"
same,fraction unbound,[5],0.23
same,"DL50, i.v., Ratte",[6],"2,6 g Jod/kg"
same,"Ratte, pericerebral, ED50",[7],"6,35 (5,11-7,44) mg Jod/kg"
same,"Ratte, intrazisternal, ED50",[8],"1,07 (0,54-1,83) mg Jod/kg"
same,dose excreted at 0.5 h,[9],59.4%
same,dose excreted at 3 h,[9],91.5%
"CNC(=O)c1c(I)c(NC(=O)COCC(=O)N(C)c2c(I)cc(I)c(C(=O)O)c2I)c(I)c(C(=O)O)c1I [E, 3-Oxapentan-disäure-l-(3-carboxy-2,4,6-trijod-N-methylanilid)-5-(3-carboxy-5N-methylcarbamoyl-2,4,6-trijodanilid)]",Tmax,[10],1.5 h
same,maximale Anreicherung in der Leber des Hundes,[3],"42,1 EMI-Units"
"CNC(=O)c1c(I)c(NC(=O)CCCCC(=O)Nc2c(I)cc(I)c(C(=O)O)c2I)c(I)c(C(=O)O)c1I [Verbindung A, Hexandisäure-1-(3-carboxy-2,4,6-trijod-anilid)-6-(3-carboxy-5-N-methylcarbamoyl-2,4,6-trijodanilid)]",Verteilungskoeffizient Butanol/Wasser pH 7.4,[4],"0,083 ± 0,001"
same,fraction unbound,[5],0.57
same,"DL50, i.v., Ratte",[6],"5,5 g Jod/kg"
same,"Ratte, pericerebral, ED50",[7],"17,1 (11,8-23,6) mg Jod/kg"
same,"Ratte, intrazisternal, ED50",[8],"15,6 (11,5-21,1) mg Jod/kg"
same,dose excreted at 0.5 h,[9],61.3%
same,dose excreted at 3 h,[9],85.9%
